Values of other authors in patent publication EP4803073A2, “METHODS AND COMPOSITIONS FOR TREATMENT OF DISORDERS AMELIORATED BY MUSCARINIC RECEPTOR ACTIVATION” (Puretech Health LLC, priority 2009, dated 2011).

Experiments:
[1] = clozapine-associated sialorrhea
[2] = with the anticholinergic agent glycopyrrolate; escalating amounts of RS-86
[3] = double-blind placebo controlled trial
[4] = phase I and subsequent trials
[5] = given with the muscarinic agonist xanomeline; syncope is a side effect observed with xanomeline

Clc1cccc(Cl)c1N=C1NCCN1 [clonidine]
efficacy in reducing sialorrhea [1]: shown efficacy in reducing sialorrhea in small scale trials

CCN1C(=O)CC2(CCN(C)CC2)C1=O [RS-86]
improvement in cognition [2]: did not result in any improvement in cognition

CCCCCCOc1nsnc1C1=CCCN(C)C1 [xanomeline]
alleviation of schizophrenia [3]: alleviation of schizophrenia was observed
side effects [4]: unacceptable GI side effects

C[N+]1(C)[C@@H]2C[C@@H](OC(=O)[C@H](CO)c3ccccc3)C[C@H]1[C@@H]1O[C@@H]12 [methscopolamine]
effect on syncope [5]: no effect on syncope
